PubChem BioAssay AID248 (DTP/NCI, 2004)
Where “and” joins values, the source holds several entries; their conditions need not be identical. Equal entries are not always repeated. Toxic doses and inconclusive results are not listed. Rule as the data show it: active = T/C of 150% or more; inactive = T/C below 125%. Square brackets hold non-standard residues; d marks the D form. Peptide text beside a SMILES is read from it. * marks the point of attachment. ξ: configuration not given here. ξH = NC(Cc1c[nH]cn1)C(=O)O; Cbz = O=C(OCc1ccccc1)*

Tested on: L1210 leukemia ip in BDF1 mice, survival T/C
Assay: NCI In Vivo Anticancer Drug Screen. Data for tumor model L1210 Leukemia (intraperitoneal) in B6D2F1 (BDF1) mice
Settings: endpoint: mean survival time, higher = longer survival
Procedure, shortened: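 Ratio derived from survival: compound-dosed mice over vehicle-dosed mice, all bearing a transplantable tumor.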

[1] = dose: 100.0 mg/kg/injection, schedule: Q04DX003 (ip), vehicle: saline with Tween-80
[2] = dose: 200.0 mg/kg/injection, schedule: Q04DX003 (ip), vehicle: saline with Tween-80
[3] = dose: 400.0 mg/kg/injection, schedule: Q04DX003 (ip), vehicle: saline with Tween-80
[4] = dose: 100.0 mg/kg/injection, schedule: Q01DX001 (ip), vehicle: saline
[5] = dose: 200.0 mg/kg/injection, schedule: Q01DX001 (ip), vehicle: saline
[6] = dose: 400.0 mg/kg/injection, schedule: Q01DX001 (ip), vehicle: saline
[7] = dose: 50.0 mg/kg/injection, schedule: Q01DX001 (ip), vehicle: saline
[8] = dose: 100.0 mg/kg/injection, schedule: Q01DX009 (ip), vehicle: Klucel (hydroxypropylcellulose) (HPC)
[9] = dose: 100.0 mg/kg/injection, schedule: Q04DX003 (ip), vehicle: Klucel (hydroxypropylcellulose) (HPC)
[10] = dose: 200.0 mg/kg/injection, schedule: Q01DX009 (ip), vehicle: Klucel (hydroxypropylcellulose) (HPC)
[11] = dose: 200.0 mg/kg/injection, schedule: Q04DX003 (ip), vehicle: Klucel (hydroxypropylcellulose) (HPC)
[12] = dose: 400.0 mg/kg/injection, schedule: Q01DX009 (ip), vehicle: Klucel (hydroxypropylcellulose) (HPC)
[13] = dose: 400.0 mg/kg/injection, schedule: Q04DX003 (ip), vehicle: Klucel (hydroxypropylcellulose) (HPC)
[14] = dose: 15.0 mg/kg/injection, schedule: Q01DX Z (ip), vehicle: saline
[15] = dose: 30.0 mg/kg/injection, schedule: Q01DX Z (ip), vehicle: saline
[16] = dose: 60.0 mg/kg/injection, schedule: Q01DX Z (ip), vehicle: saline
[17] = dose: 120.0 mg/kg/injection, schedule: Q01DX Z (ip), vehicle: saline
[18] = dose: 50.0 mg/kg/injection, schedule: Q01DX009 (ip), vehicle: saline
[19] = dose: 25.0 mg/kg/injection, schedule: Q01DX009 (ip), vehicle: Klucel (hydroxypropylcellulose) (HPC)
[20] = dose: 50.0 mg/kg/injection, schedule: Q01DX009 (ip), vehicle: Klucel (hydroxypropylcellulose) (HPC)
[21] = dose: 100.0 mg/kg/injection, schedule: Q04DX003 (ip), vehicle: saline

Measured: T/C

COc1cc(Oc2c(OC)cc(N)cc2OC)cc(OC)c1OC
inactive: [1] 97 % of control | [2] 95 % of control | [3] 95 % of control

O=C(CNC(=O)OCc1ccccc1)NC(Cc1cnc[nH]1)C(=O)O (stereo not drawn) (Cbz-Gly-[ξH]-OH)
inactive: [4] 96 % of control | [5] 104 % of control | [6] 107 % of control

CC(=O)SCCCON1C(=O)c2ccccc2C1=O
inactive: [7] 100 % of control | [4] 96 % of control | [5] 102 % of control | [6] 102 % of control

CCCCCCCCCCCCCCCC(=O)Nc1ccc(Cl)cc1
inactive: dose: 100.0 mg/kg/injection, schedule: Q04DX002 (ip), vehicle: saline with Tween-80 94 % of control | dose: 200.0 mg/kg/injection, schedule: Q04DX002 (ip), vehicle: saline with Tween-80 94 % of control | dose: 400.0 mg/kg/injection, schedule: Q04DX002 (ip), vehicle: saline with Tween-80 97 % of control

CCC(=O)Nc1cc(Cl)ccc1C
inactive: [8] 98 % of control | [9] 102 % of control | [10] 98 % of control | [11] 102 % of control | [12] 95 % of control | [13] 102 % of control

CNc1ccc(C(=O)O)cc1I
inactive: [8] 100 % of control | [9] 94 % of control | [10] 94 % of control | [11] 103 % of control | [12] 94 % of control | [13] 96 % of control

CN(C)CCSCC(OC(=O)c1ccccc1)c1ccccc1 (stereo unspecified)
inactive: [1] 94 % of control

O=C(Cn1ccc(=O)[nH]c1=O)Nc1ccc(C(=O)O)cc1
inactive: [4] 96 % of control | [5] 111 % of control | [6] 96 % of control

O=C(c1ccccc1)c1ccc(-c2ccccc2)cc1
inactive: dose: 87.5 mg/kg/injection, schedule: Q04DX003 (ip), vehicle: Klucel (hydroxypropylcellulose) (HPC) 97 % of control | dose: 175.0 mg/kg/injection, schedule: Q04DX003 (ip), vehicle: Klucel (hydroxypropylcellulose) (HPC) 95 % of control | dose: 350.0 mg/kg/injection, schedule: Q04DX003 (ip), vehicle: Klucel (hydroxypropylcellulose) (HPC) 97 % of control

CC(=O)O/N=C\C(C)=N\OC(C)=O
inactive: [14] 109 % of control | [15] 109 % of control | [16] 107 % of control | [17] 107 % of control

CC1N=C(N)NC(=O)C1c1ccc(Cl)cc1 (stereo unspecified)
inactive: dose: 100.0 mg/kg/injection, schedule: Q01DX009 (ip), vehicle: saline with Tween-80 103 % of control | dose: 200.0 mg/kg/injection, schedule: Q01DX009 (ip), vehicle: saline with Tween-80 100 % of control

CC(C)(C)S/C=C/C(N)=O
inactive: [18] 98 % of control | [4] 91 % of control | dose: 100.0 mg/kg/injection, schedule: Q01DX009 (ip), vehicle: saline 96 % of control | [5] 93 % of control | dose: 200.0 mg/kg/injection, schedule: Q01DX009 (ip), vehicle: saline 94 % of control

CC(C)(O)C1(O)CCCC1
inactive: [7] 95 % of control | [4] 93 % of control | [5] 101 % of control | [6] 93 % of control

N#C/C(=C/Cc1ccc(Cl)cc1)Nc1ccccc1C(N)=O
inactive: dose: 12.5 mg/kg/injection, schedule: Q01DX001 (ip), vehicle: Klucel (hydroxypropylcellulose) (HPC) 101 % of control | dose: 25.0 mg/kg/injection, schedule: Q01DX001 (ip), vehicle: Klucel (hydroxypropylcellulose) (HPC) 101 % of control | dose: 50.0 mg/kg/injection, schedule: Q01DX001 (ip), vehicle: Klucel (hydroxypropylcellulose) (HPC) 102 % of control | dose: 75.0 mg/kg/injection, schedule: Q04DX003 (ip), vehicle: Klucel (hydroxypropylcellulose) (HPC) 104 % of control | dose: 115.0 mg/kg/injection, schedule: Q04DX003 (ip), vehicle: Klucel (hydroxypropylcellulose) (HPC) 104 % of control | dose: 170.0 mg/kg/injection, schedule: Q04DX003 (ip), vehicle: Klucel (hydroxypropylcellulose) (HPC) 98 % of control

Cc1cc(N)c(C(=O)O)cc1C
inactive: [7] 104 % of control | [4] 107 % of control | [5] 104 % of control | [6] 104 % of control

CCOC(=O)C(=Cc1ccc(Cl)cc1)C(=O)OCC
inactive: [19] 95 % of control | [20] 97 % of control | [8] 102 % of control | [9] 107 % of control | [11] 98 % of control | [13] 100 % of control

O=C(Nc1ccccn1)c1cc(N2CCOCC2)ccn1
inactive: [4] 102 % of control

COc1cc2ccc3ccncc3c2cc1OC
inactive: dose: 12.5 mg/kg/injection, schedule: Q01DX009 (ip), vehicle: saline 104 % of control | dose: 25.0 mg/kg/injection, schedule: Q01DX009 (ip), vehicle: saline 106 % of control and 115 % of control | [18] 97 % of control and 111 % of control | [21] 86 % of control

CC12CCC(C1)C(C)(C)/C2=N\N=C(N)N (stereo unspecified)
inactive: [14] 93 % of control | [15] 103 % of control | [16] 93 % of control | [17] 97 % of control | dose: 188.0 mg/kg/injection, schedule: Q01DX Z (oral), vehicle: saline 103 % of control | dose: 375.0 mg/kg/injection, schedule: Q01DX Z (oral), vehicle: saline 105 % of control | dose: 750.0 mg/kg/injection, schedule: Q01DX Z (oral), vehicle: saline 91 % of control

O=C(O)c1ccc(Br)s1
inactive: [4] 97 % of control | [5] 99 % of control

CSc1ncc(CO)c(Nc2ccc(F)cc2)n1
inactive: [21] 93 % of control | dose: 200.0 mg/kg/injection, schedule: Q04DX003 (ip), vehicle: saline 100 % of control | dose: 400.0 mg/kg/injection, schedule: Q04DX003 (ip), vehicle: saline 98 % of control

O=C(NCCNC(=O)C(Cl)(Cl)Cl)C(Cl)(Cl)Cl
inactive: [8] 89 % of control | [10] 91 % of control | [12] 87 % of control

C=CCNC(=O)Oc1cccc(NC(=O)OCC=C)c1
inactive: [1] 96 % of control | [2] 96 % of control | [3] 102 % of control

CS(=O)(=O)NC(=O)NCCCl
inactive: dose: 100.0 mg/kg/injection, schedule: Q01DX001 (ip), vehicle: other 95 % of control | dose: 200.0 mg/kg/injection, schedule: Q01DX001 (ip), vehicle: other 95 % of control | dose: 400.0 mg/kg/injection, schedule: Q01DX001 (ip), vehicle: other 98 % of control

CS(=O)(=O)CCS(=O)(=O)c1cccs1
inactive: [20] 103 % of control | [8] 102 % of control | [9] 110 % of control | [11] 112 % of control | [13] 111 % of control

N#CC(C#N)=Cc1ccsc1
inactive: dose: 6.25 mg/kg/injection, schedule: Q01DX009 (ip), vehicle: Klucel (hydroxypropylcellulose) (HPC) 102 % of control | dose: 12.5 mg/kg/injection, schedule: Q01DX009 (ip), vehicle: Klucel (hydroxypropylcellulose) (HPC) 94 % of control | dose: 12.5 mg/kg/injection, schedule: Q04DX003 (ip), vehicle: Klucel (hydroxypropylcellulose) (HPC) 102 % of control | [19] 100 % of control | dose: 25.0 mg/kg/injection, schedule: Q04DX003 (ip), vehicle: Klucel (hydroxypropylcellulose) (HPC) 96 % of control

COc1cc(C(=O)CCC(=O)O)cc(OC)c1OC
inactive: [8] 96 % of control | [9] 96 % of control | [10] 104 % of control | [11] 102 % of control | [12] 102 % of control | [13] 93 % of control

CC(=O)Nc1ccc(C=O)s1
inactive: dose: 100.0 mg/kg/injection, schedule: Q01DX001 (ip), vehicle: carboxymethylcellulose (CMC) 97 % of control | dose: 200.0 mg/kg/injection, schedule: Q01DX001 (ip), vehicle: carboxymethylcellulose (CMC) 94 % of control | dose: 400.0 mg/kg/injection, schedule: Q01DX001 (ip), vehicle: carboxymethylcellulose (CMC) 103 % of control

ClC(Cl)C(c1ccccc1)c1ccccc1
inactive: dose: 100.0 mg/kg/injection, schedule: Q01DX001 (ip), vehicle: Klucel (hydroxypropylcellulose) (HPC) 100 % of control | dose: 200.0 mg/kg/injection, schedule: Q01DX001 (ip), vehicle: Klucel (hydroxypropylcellulose) (HPC) 97 % of control | dose: 400.0 mg/kg/injection, schedule: Q01DX001 (ip), vehicle: Klucel (hydroxypropylcellulose) (HPC) 92 % of control
